In brackets after ≈: the same amount, converted by molar mass. Where two headings read alike, the source gives them in different places.
How the values were obtained:
[1] = test system: E. coli ATCC25992; test: Broth microdilution MIC (NCCLS); type: cell-based; settings: Escherichia coli
Method: (§1) Compounds were evaluated for antimicrobial activity against a panel of bacterial strains using a broth microdilution assay performed as recommended by the NCCLS (1). The minimum inhibitory concentration (MIC) was defined as the lowest concentration of drug which prevented the growth of the bacteria.
(§2) For this primary panel, the assay was performed in Mueller-Hinton Broth (MHB) with a final bacterial inoculum of 5×10^5 CFU/mL (from an early-log phase culture) and a final volume of 100 μL. Control drugs, including imipenem, vancomycin, Penicillin G, dicloxacillin (vs. MSSA ATCC29213 only), and new compounds were prepared at a concentration equivalent to 2-fold the desired final concentration. Dilution of compounds were prepared directly in the plates by serial 2-fold dilution using a multichannel pipette. Positive and negative growth control were included in each plate.
(§3) The bacterial inocula were prepared as follows. For each strain one isolated colony was used to inoculate a volume of 8 mL of Mueller-Hinton broth and these cultures were incubated overnight (20 h) at 35° C. in a shaking incubator. At the exception of Enterococcus strains, culture were then diluted 1:10 and allowed to grow for an additional one hour at 35° C. in a shaking incubator. The inocula were prepared by diluting the early log-phase (1 h) cultures 1:1000 with fresh Mueller-Hinton broth. E. faecium and E. faecalis were prepared by diluting overnight cultures 1:333 and 1:666, respectively, with fresh Mueller-Hinton broth. A volume of 50 μL of the inocula was added to each well. […] The exact inocula were determined by applying 10 μL of 10-fold serial dilution of the bacterial suspensions on TSA. After overnight incubation at 35° C., colony forming units were manually counted.
(§4) Microtiter plates were incubated during 24 h at 35° C. and were read using a microtiterplate reader (Molecular Devices) at 650 nm as well as by visual observation using a microtiterplate reading mirror.

[2] = test system: E. faecium A491 (Amp^R); test: Broth microdilution MIC (NCCLS); type: cell-based; settings: Enterococcus faecium
Method: as §1, §2, §3, §4

[3] = test system: S. aureus ATCC 13709 (Meth^S); test: Broth microdilution MIC (NCCLS); type: cell-based; settings: Staphylococcus aureus
Method: as §1, §2, §3, §4

[4] = test system: S. aureus Spain #356 (Meth^R); test: Broth microdilution MIC (NCCLS); type: cell-based; settings: Staphylococcus aureus, 24 h
Method: as §1, §2, §3, §4

[5] = test system: E. faecium VanA (Van^R); test: Broth microdilution MIC (NCCLS); type: cell-based; settings: Enterococcus faecium
Method: as §1, §2, §3, §4

[6] = test system: E. faecium ATCC 35667; test: Broth microdilution MIC (NCCLS); type: cell-based; settings: Enterococcus faecium, ATCC35667
Method: as §1, §2, §3, §4

[7] = test system: S. haemolyticus 05 (Meth^R); test: Broth microdilution MIC (NCCLS); type: cell-based; settings: Staphylococcus haemolyticus
Method: as §1, §2, §3, §4

[8] = test system: P. aeruginosa ATCC 27853; test: Broth microdilution MIC (NCCLS); type: cell-based; settings: Pseudomonas aeruginosa, ATCC27853
Method: as §1, §2, §3, §4

[9] = test system: S. aureus ATCC 29213; test: Broth microdilution MIC (NCCLS); type: cell-based; settings: Staphylococcus aureus
Method: as §1, §2, §3, §4

[10] = test system: S. aureus 76 (Meth^R)(lac^+); test: Broth microdilution MIC (NCCLS); type: cell-based; settings: Staphylococcus aureus
Method: as §1, §2, §3, §4

[11] = test system: E. faecalis VanB (Van^R); test: Broth microdilution MIC (NCCLS); type: cell-based; settings: Enterococcus faecalis
Method: as §1, §2, §3, §4

[12] = test system: S. aureus Col (Meth^R)(lac^−); test: Broth microdilution MIC (NCCLS); type: cell-based; settings: Staphylococcus aureus
Method: as §1, §2, §3, §4

[13] = test system: S. aureus PC1 (Meth^S)(lac^+); test: Broth microdilution MIC (NCCLS); type: cell-based; settings: Staphylococcus aureus
Method: as §1, §2, §3, §4

[14] = test system: S. aureus ATCC 33593 (Meth^R); test: Broth microdilution MIC (NCCLS); type: cell-based; settings: Staphylococcus aureus, ATCC33593
Method: as §1, §2, §3, §4

[15] = test system: S. aureus Col8A (Meth^S)(lac^−); test: Broth microdilution MIC (NCCLS); type: cell-based; settings: Staphylococcus aureus
Method: as §1, §2, §3, §4

[16] = test system: S. aureus ATCC29213; test: Human serum binding effect: MIC with and without human serum; type: cell-based, Staphylococcus aureus; settings: 1:1 human serum:MHB
Method in brief: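 Serum binding was estimated as the ratio of S. aureus ATCC29213 MIC in 1:1 human serum:Mueller-Hinton broth to MIC without serum. Compounds were serially 2-fold diluted, and wells received an early-log-phase inoculum at 1×10^6 CFU/mL final. Inoculum size was checked by colony counts on TSA after overnight incubation at 35 °C.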

[17] = test system: E. faecalis ATCC 29212; test: Broth microdilution MIC (NCCLS); type: cell-based; settings: Enterococcus faecalis, ATCC29212
Method: as §1, §2, §3, §4

[18] = test system: human serum proteins; test: Serum binding determination by ultrafiltration/HPLC; type: in vitro ADME; settings: by HPLC
Method: The more accurate measurement of binding of selected cephalosporin compounds was performed using HPLC as described below.
1. Serum is placed in a shaking water bath preheated to 37±2° C. for 5 to 10 minutes to heat serum to 37° C. Serum pH is measured and recorded, while serum is 37° C. using pH paper. Measurements are taken twice, 3 minutes apart. If the pH is not 7.4±0.4 then the pH is adjusted by blowing 5% CO2/95% O2 over the serum. After blowing for several minutes, serum is heated to 37° C. and measurements are taken twice, 3 minutes apart using pH paper to determine the pH. Store at 4° C. The serum is stable for 7 days. Always check the pH before each use.
2. Before any centrifugation, the centrifuge temperature must be adjusted to 25±2° C. Preheat the centrifuge by spinning for 45 minutes at the same speed to be used in the assay (1900 g) with two tubes of water in the rotor and the temperature set to 25° C. When the centrifuge stops immediately check the temperature of the tubes of water with a calibrated thermometer. The temperature of the tubes of water must be 25±2° C. […] Continue spinning and measuring the temperature and adjusting the setting until the temperature is 25±2° C.
3. Prepare blank ultrafiltrate by pipetting blank pH 7.4 serum into an Amicon Centrifree Micropartition devices, centrifuge: fixed angle rotor, 1900 g, 25° C. for 20 minutes. Heat ultrafiltrate in a shaking water bath preheated to 37° C. Measure ultrafiltrate pH and adjust to the pH of the serum (7.4±0.2).
4. Pipette 190 ul of blank ultrafiltrate into a set of labeled 1.7 mL polypropylene microfuge tubes for 3 of each level. Pipette 10 μL of the appropriate standard stock 50, 200, 1000 μg/mL to make standards 2.5, 10, and 50 μg/mL respectively. Vortex each tube well. One set of the standard samples are mixed 1:1 with 0.2 M acetic acid and injected onto the HPLC (MSTD). These samples are the membrane standards and will be used to compare to the other standards. Pipette 190 ul of ultrafiltrate and spike with 10 ul of whatever solution (e.g. water) the standards are prepared in to make the zero standard.
5. Pipette 475 μL of blank heated pH 7.4 serum into a set of labeled 1.7 mL polypropylene microfuge tubes for 2 of each (Serum A and Serum B). Pipette 25 μL of the 1000 μg/mL standard stock into each tube, vortex each tube well to make serum standard 50 μg/mL. Remove 100 μL of serum and deproteinate with 200 μL 4% TCA while vortexing to make serum time 0 (serum 50, T0). Place serum tubes in a shaking water bath at 37° C. for 10 minutes. Pipet 100 μL of serum out and deproteinate with 200 μL 4% TCA, to make serum time 10 min (serum 50, T10). Pipet 200 ul serum standard 50 μg/mL into an ultrafiltration device, which is not treated with TCA, to determine free drug in samples (Rat Serum 50).
6. Transfer serum and standard samples to labeled Amicon Centrifree Micropartition filters, and centrifuge: 1900 g, 25° C. for 10 minutes. The extracted serum samples (T0 and T10) are spun down and supernatant is loaded into HPLC vials.
7. 100 μL of ultrafiltrate sample and 100 μL of 0.2 M acetic acid were mixed together to stabilize the compound in ultrafiltrate.
8. Transfer entire stabilized ultrafiltrate solution to a labeled autoinjector HPLC vial cap with Teflon septa, and inject on HPLC.
Peak height or area is used in a weighted linear regression.

[19] = ATCC13709, S. aureus ATCC 13709 (Meth^S), read-out: MIC
[20] = ATCC29213, S. aureus ATCC 29213, Mueller-Hinton broth, 24 h at 35° C., read-out: MIC

SMILES	MIC [1]	MIC [2]	MIC [3, 19]	MIC [4]	MIC [5]	MIC [6]	MIC [7]	MIC [8]	MIC [9, 20]	MIC [10]	MIC [11]	MIC [12]	MIC [13]	MIC [14]	MIC [15]	Human serum binding effect (ratio of MIC value determined with and without human serum added) [16]	MIC ([3]; ATCC13709)	MIC ([9]; ATCC29213, 24 h)	MIC [17]	Serum Binding human (% of compound bound to serum) [18]
NCCSCc1nsc(SC2=C(C(=O)O)N3C(=O)[C@@H](NC(=O)/C(=N\O)c4nc(N)sc4Cl)[C@H]3SC2)n1 [Cmpd 12, (7R)-7-[(Z)-2-(2-amino-5-chlorothiazol-4-yl)-2-(hydroxyimino)acetamido]-3-[3-(2-aminoethylthiomethyl)-1,2,4-thiadiazol-5-ylthio]-3-cephem-4-carboxylic acid]	4 µg/mL (≈ 6.57 µM)	4 µg/mL (≈ 6.57 µM)	0.25 µg/mL (≈ 0.41 µM)	1 µg/mL (≈ 1.64 µM)	1 µg/mL (≈ 1.64 µM)	0.5 µg/mL (≈ 0.821 µM)	2 µg/mL (≈ 3.28 µM)	> 32 µg/mL	0.5 µg/mL (≈ 0.821 µM)	1 µg/mL (≈ 1.64 µM)	0.13 µg/mL (≈ 0.213 µM)	1 µg/mL (≈ 1.64 µM)	0.13 µg/mL (≈ 0.213 µM)	1 µg/mL (≈ 1.64 µM)	0.5 µg/mL (≈ 0.821 µM)	256	–	–	–	–
NCCSCc1nc(Cl)sc1SC1=C(C(=O)O)N2C(=O)[C@@H](NC(=O)/C(=N\O)c3cccc(N)n3)[C@H]2SC1 [Cmpd 29, (7R)-7-[(Z)-2-(2-aminopyrid-6-yl)-2-(hydroxyimino)acetamido]-3-[2-chloro-4-(2-aminoethylthiomethyl)-1,3-thiazol-5-ylthio]-3-cephem-4-carboxylic acid]	16 µg/mL (≈ 26.6 µM)	> 32 µg/mL	–	2 µg/mL (≈ 3.32 µM)	4 µg/mL (≈ 6.64 µM)	2 µg/mL (≈ 3.32 µM)	2 µg/mL (≈ 3.32 µM)	> 32 µg/mL	–	1 µg/mL (≈ 1.66 µM)	0.5 µg/mL (≈ 0.83 µM)	1 µg/mL (≈ 1.66 µM)	0.25 µg/mL (≈ 0.415 µM)	1 µg/mL (≈ 1.66 µM)	0.125 µg/mL (≈ 0.208 µM)	–	0.125 µg/mL (≈ 0.208 µM)	0.125 µg/mL (≈ 0.208 µM)	0.25 µg/mL (≈ 0.415 µM)	97%
NCCNc1nc(CSCCN)c(SC2=C(C(=O)O)N3C(=O)[C@@H](NC(=O)/C(=N\O)c4nc(N)sc4Cl)[C@H]3SC2)s1 [Cmpd 16, (7R)-7-[(Z)-2-(2-amino-5-chlorothiazol-4-yl)-2-(hydroxyimino)acetamido]-3-[4-(2-aminoethylthiomethyl)-2-aminoethylamino-1,3-thiazol-5-ylthio]-3-cephem-4-carboxylic acid]	4 µg/mL (≈ 6 µM)	16 µg/mL (≈ 24 µM)	0.13 µg/mL (≈ 0.195 µM)	1 µg/mL (≈ 1.5 µM)	4 µg/mL (≈ 6 µM)	0.5 µg/mL (≈ 0.75 µM)	1 µg/mL (≈ 1.5 µM)	1 µg/mL (≈ 1.5 µM)	0.13 µg/mL (≈ 0.195 µM)	1 µg/mL (≈ 1.5 µM)	0.06 µg/mL (≈ 0.0901 µM)	1 µg/mL (≈ 1.5 µM)	0.13 µg/mL (≈ 0.195 µM)	1 µg/mL (≈ 1.5 µM)	0.25 µg/mL (≈ 0.375 µM)	1	–	–	0.06 µg/mL (≈ 0.0901 µM)	–
NCCSCc1nnc(SC2=C(C(=O)O)N3C(=O)[C@@H](NC(=O)/C(=N\O)c4nc(N)sc4Cl)[C@H]3SC2)s1 [Cmpd 10, (7R)-7-[(Z)-2-(2-amino-5-chlorothiazol-4-yl)-2-(hydroxyimino)acetamido]-3-(2-aminoethylthiomethyl-1,3,4-thiadiazol-5-ylthio)-3-cephem-4-carboxylic acid]	1 µg/mL (≈ 1.64 µM)	8 µg/mL (≈ 13.1 µM)	0.13 µg/mL (≈ 0.213 µM)	4 µg/mL (≈ 6.57 µM)	2 µg/mL (≈ 3.28 µM)	1 µg/mL (≈ 1.64 µM)	4 µg/mL (≈ 6.57 µM)	16 µg/mL (≈ 26.3 µM)	0.5 µg/mL (≈ 0.821 µM)	2 µg/mL (≈ 3.28 µM)	0.25 µg/mL (≈ 0.41 µM)	2 µg/mL (≈ 3.28 µM)	0.5 µg/mL (≈ 0.821 µM)	2 µg/mL (≈ 3.28 µM)	0.25 µg/mL (≈ 0.41 µM)	1	–	–	0.13 µg/mL (≈ 0.213 µM)	–
NCCSCc1ccncc1SC1=C(C(=O)O)N2C(=O)[C@@H](NC(=O)/C(=N\O)c3cccc(N)n3)[C@H]2SC1 [Cmpd 28, (7R)-7-[(Z)-2-(2-aminopyrid-6-yl)-2-(hydroxyimino)acetamido]-3-[4-(2-aminoethylthiomethyl)pyrid-3-ylthio]-3-cephem-4-carboxylic acid]	32 µg/mL (≈ 57 µM)	> 32 µg/mL	0.13 µg/mL (≈ 0.231 µM)	8 µg/mL (≈ 14.2 µM)	8 µg/mL (≈ 14.2 µM)	4 µg/mL (≈ 7.12 µM)	16 µg/mL (≈ 28.5 µM)	> 32 µg/mL	0.5 µg/mL (≈ 0.89 µM)	8 µg/mL (≈ 14.2 µM)	2 µg/mL (≈ 3.56 µM)	8 µg/mL (≈ 14.2 µM)	0.5 µg/mL (≈ 0.89 µM)	8 µg/mL (≈ 14.2 µM)	0.25 µg/mL (≈ 0.445 µM)	–	–	–	0.5 µg/mL (≈ 0.89 µM)	–

Source: patent publication US6723716B1, “7-acylamino-3-heteroarylthio-3-cephem carboxylic acid antibiotics and prodrugs thereof” (Essential Therapeutics, Inc., priority 1999, dated 2004)
